Assays:
[1] = target: Homeodomain-interacting protein kinase 1 (Homo sapiens) (UniProt Q86Z02); conditions: Compound concentration 1000.0 nM
[2] = system: Serine/threonine-protein kinase B-raf (Homo sapiens), P15056 [V600E]; conditions: Compound concentration 1000.0 nM
[3] = target: BDNF/NT-3 growth factors receptor (Homo sapiens) (UniProt Q16620); conditions: Compound concentration 1000.0 nM
[4] = target: MAP kinase-interacting serine/threonine-protein kinase 1 (Homo sapiens) (UniProt Q9BUB5); conditions: Compound concentration 1000.0 nM
Sequence of MAP kinase-interacting serine/threonine-protein kinase 1 (Homo sapiens) (Q9BUB5 whole entry, looked up): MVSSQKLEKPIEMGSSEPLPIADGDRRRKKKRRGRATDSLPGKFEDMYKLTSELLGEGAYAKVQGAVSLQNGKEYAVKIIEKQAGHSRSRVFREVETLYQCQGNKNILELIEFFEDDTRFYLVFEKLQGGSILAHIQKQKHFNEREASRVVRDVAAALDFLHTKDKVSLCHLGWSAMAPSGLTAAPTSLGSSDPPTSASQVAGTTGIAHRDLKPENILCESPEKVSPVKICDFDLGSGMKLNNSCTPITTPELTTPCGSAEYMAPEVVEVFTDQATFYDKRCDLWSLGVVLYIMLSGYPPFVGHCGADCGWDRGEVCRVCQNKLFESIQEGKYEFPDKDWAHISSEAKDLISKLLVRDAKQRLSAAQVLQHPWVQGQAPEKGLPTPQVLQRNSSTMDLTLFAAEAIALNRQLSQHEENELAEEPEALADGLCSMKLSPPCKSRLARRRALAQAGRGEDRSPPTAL

[5] = target: Muscarinic acetylcholine receptor M5 (Homo sapiens) (UniProt P08912); conditions: Compound concentration 10.0 uM
[6] = target: Serine/threonine-protein kinase SIK2 (Homo sapiens) (UniProt Q9H0K1); conditions: Compound concentration 1000.0 nM
[7] = target: Cyclin-dependent kinase 4 (Homo sapiens) (UniProt P11802); conditions: Compound concentration 1000.0 nM
Sequence of Cyclin-dependent kinase 4 (Homo sapiens) (P11802 whole entry): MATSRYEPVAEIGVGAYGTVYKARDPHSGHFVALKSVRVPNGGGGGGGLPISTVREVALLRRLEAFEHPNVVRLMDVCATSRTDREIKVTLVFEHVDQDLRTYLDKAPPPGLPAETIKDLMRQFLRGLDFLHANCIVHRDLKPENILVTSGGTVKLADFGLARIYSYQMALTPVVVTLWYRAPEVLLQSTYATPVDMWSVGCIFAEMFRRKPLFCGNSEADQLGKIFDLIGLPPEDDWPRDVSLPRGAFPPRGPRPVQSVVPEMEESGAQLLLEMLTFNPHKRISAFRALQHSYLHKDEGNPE

[8] = target: Serine/threonine-protein kinase B-raf (Homo sapiens) (UniProt P15056); conditions: Compound concentration 1000.0 nM
[9] = target: G protein-coupled receptor kinase 4 (Homo sapiens) (UniProt P32298); conditions: Compound concentration 1000.0 nM
[10] = target: Serine/threonine-protein kinase Chk2 (Homo sapiens) (UniProt O96017); conditions: Compound concentration 1000.0 nM
Sequence of Serine/threonine-protein kinase Chk2 (Homo sapiens) (O96017 whole entry): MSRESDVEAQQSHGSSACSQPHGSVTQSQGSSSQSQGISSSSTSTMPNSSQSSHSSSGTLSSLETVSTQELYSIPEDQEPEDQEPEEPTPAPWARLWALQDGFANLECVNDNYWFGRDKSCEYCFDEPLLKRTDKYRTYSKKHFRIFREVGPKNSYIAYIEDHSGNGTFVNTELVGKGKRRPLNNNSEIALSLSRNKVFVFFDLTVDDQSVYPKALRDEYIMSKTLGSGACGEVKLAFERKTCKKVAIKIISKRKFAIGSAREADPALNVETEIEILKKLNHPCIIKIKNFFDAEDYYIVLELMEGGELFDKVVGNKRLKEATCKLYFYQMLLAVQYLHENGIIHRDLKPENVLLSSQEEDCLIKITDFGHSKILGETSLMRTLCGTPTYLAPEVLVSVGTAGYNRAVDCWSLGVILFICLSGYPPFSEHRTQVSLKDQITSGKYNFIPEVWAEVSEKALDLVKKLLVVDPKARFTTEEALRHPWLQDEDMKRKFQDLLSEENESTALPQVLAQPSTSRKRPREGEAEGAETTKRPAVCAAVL

[11] = target: Mitogen-activated protein kinase 7 (Homo sapiens) (UniProt Q13164); conditions: Compound concentration 1000.0 nM
[12] = target: Serine/threonine-protein kinase N2 (Homo sapiens) (UniProt Q16513); conditions: Compound concentration 1000.0 nM
Sequence of Serine/threonine-protein kinase N2 (Homo sapiens) (Q16513 whole entry, looked up): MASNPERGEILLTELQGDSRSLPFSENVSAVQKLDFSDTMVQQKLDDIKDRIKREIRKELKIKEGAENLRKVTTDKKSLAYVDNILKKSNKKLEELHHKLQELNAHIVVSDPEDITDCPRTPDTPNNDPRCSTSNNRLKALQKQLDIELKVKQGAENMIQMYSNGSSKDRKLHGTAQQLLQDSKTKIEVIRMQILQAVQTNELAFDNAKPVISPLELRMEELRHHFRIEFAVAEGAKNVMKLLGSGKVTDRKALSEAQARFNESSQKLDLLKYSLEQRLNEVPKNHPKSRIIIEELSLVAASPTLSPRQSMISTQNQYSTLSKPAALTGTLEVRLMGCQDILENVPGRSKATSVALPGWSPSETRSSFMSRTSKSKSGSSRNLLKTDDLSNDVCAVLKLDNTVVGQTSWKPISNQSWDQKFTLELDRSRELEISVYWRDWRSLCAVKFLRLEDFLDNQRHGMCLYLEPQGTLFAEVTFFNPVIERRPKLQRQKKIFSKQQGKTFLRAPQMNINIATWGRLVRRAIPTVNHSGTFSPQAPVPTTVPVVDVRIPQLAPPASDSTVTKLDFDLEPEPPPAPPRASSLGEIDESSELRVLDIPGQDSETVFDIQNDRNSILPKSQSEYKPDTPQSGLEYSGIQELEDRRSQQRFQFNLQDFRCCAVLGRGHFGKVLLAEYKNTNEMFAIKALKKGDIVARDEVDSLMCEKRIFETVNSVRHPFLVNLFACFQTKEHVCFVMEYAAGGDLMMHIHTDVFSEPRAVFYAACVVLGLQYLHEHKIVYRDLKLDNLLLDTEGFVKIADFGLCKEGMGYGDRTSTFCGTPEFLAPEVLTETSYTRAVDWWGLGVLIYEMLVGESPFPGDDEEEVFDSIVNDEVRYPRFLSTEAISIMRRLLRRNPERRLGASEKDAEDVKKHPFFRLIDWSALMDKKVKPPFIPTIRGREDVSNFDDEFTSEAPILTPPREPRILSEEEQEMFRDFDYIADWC

[13] = target: Casein kinase II subunit alpha (Homo sapiens) (UniProt P68400); conditions: Compound concentration 1000.0 nM
Sequence of Casein kinase II subunit alpha (Homo sapiens) (P68400 whole entry, looked up): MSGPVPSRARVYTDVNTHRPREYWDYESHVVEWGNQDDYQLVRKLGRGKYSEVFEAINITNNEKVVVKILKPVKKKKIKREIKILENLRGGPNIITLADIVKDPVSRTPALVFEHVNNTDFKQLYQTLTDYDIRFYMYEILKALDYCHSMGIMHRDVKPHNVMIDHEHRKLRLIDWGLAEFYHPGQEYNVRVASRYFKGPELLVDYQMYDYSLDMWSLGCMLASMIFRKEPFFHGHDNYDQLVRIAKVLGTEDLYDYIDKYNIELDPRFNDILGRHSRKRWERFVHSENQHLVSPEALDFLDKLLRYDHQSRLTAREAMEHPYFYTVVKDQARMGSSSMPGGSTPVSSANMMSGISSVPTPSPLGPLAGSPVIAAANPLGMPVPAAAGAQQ

[14] = system: Tyrosine-protein kinase ABL1 (Homo sapiens), P00519 [F317I]; conditions: Compound concentration 1000.0 nM
Sequence of Tyrosine-protein kinase ABL1 (Homo sapiens), P00519 [F317I] (P00519 whole entry F317I): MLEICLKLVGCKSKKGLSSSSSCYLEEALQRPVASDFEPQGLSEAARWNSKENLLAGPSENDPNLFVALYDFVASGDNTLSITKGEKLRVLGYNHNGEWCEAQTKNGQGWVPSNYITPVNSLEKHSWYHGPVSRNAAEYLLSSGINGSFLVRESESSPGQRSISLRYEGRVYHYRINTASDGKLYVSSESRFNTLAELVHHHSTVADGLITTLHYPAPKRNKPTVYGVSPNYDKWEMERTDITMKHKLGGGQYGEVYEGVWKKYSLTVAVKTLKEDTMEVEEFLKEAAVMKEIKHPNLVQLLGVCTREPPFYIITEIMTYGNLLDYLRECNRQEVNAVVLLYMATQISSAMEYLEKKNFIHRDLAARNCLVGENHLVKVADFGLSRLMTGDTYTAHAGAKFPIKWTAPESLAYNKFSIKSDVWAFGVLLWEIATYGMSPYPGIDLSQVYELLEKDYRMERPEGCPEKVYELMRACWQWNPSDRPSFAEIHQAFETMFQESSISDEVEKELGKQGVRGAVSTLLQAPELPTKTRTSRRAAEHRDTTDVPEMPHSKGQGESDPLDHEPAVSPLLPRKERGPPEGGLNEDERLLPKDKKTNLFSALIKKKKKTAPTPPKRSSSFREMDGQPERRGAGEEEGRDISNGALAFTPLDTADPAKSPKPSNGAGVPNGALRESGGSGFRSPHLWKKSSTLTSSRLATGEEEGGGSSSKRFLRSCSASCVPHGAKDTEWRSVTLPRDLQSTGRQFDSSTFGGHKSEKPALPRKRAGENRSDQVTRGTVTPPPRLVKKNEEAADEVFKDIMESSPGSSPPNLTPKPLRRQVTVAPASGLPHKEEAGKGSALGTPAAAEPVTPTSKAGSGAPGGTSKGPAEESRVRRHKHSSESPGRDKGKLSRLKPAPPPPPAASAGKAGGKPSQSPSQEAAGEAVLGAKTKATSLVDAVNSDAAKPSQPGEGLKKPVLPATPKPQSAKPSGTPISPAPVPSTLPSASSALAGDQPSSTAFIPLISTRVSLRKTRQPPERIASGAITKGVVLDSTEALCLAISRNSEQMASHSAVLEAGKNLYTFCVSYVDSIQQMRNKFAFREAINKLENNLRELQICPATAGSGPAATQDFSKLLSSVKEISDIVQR

[15] = target: T1, Serine/threonine-protein kinase D1 (Homo sapiens) (UniProt Q15139); conditions: Compound concentration 1000.0 nM
T1 sequence (whole entry): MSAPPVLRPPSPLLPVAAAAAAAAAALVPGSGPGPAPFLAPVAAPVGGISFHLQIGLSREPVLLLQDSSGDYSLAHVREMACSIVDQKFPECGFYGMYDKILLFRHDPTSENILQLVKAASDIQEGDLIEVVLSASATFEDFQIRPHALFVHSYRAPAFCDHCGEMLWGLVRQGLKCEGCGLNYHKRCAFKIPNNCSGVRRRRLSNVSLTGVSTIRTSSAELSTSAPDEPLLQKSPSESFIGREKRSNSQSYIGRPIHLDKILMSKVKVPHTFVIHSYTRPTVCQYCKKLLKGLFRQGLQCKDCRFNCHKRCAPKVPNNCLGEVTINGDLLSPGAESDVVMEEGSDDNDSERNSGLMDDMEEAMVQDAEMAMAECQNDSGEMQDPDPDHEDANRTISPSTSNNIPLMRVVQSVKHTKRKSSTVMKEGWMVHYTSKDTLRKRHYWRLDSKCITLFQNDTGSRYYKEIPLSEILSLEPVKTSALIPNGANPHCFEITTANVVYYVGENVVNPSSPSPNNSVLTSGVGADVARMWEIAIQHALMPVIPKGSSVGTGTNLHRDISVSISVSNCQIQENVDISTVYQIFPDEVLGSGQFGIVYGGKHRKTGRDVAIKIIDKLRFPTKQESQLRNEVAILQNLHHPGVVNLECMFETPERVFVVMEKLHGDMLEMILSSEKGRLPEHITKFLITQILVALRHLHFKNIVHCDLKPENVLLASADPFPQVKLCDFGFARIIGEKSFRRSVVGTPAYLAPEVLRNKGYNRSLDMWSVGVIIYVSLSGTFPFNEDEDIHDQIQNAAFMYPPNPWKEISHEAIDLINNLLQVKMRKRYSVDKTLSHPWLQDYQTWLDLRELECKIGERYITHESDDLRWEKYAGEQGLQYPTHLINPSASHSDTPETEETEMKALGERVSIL

[16] = target: Death-associated protein kinase 3 (Homo sapiens) (UniProt O43293); conditions: Compound concentration 1000.0 nM
[17] = target: T2, Mitogen-activated protein kinase kinase kinase 2 (Homo sapiens) (UniProt Q9Y2U5); conditions: Compound concentration 1000.0 nM
T2 sequence (whole entry): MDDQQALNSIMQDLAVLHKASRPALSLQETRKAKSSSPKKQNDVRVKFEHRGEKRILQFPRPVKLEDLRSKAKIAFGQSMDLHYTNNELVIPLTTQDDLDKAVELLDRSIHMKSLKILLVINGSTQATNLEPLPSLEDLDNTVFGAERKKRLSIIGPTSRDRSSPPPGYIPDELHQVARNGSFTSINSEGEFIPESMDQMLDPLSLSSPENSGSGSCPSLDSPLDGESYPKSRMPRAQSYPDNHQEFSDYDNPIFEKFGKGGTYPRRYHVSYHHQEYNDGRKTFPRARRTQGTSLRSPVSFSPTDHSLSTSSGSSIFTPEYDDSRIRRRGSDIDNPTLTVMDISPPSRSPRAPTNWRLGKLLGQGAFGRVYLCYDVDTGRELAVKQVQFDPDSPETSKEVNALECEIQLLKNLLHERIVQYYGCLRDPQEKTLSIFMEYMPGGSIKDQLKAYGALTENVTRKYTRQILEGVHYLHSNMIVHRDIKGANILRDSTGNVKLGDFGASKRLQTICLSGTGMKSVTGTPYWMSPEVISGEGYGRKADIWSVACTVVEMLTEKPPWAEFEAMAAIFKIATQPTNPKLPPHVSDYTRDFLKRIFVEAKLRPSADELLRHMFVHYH

[18] = target: T3, Serine/threonine-protein kinase Sgk3 (Homo sapiens) (UniProt Q96BR1); conditions: Compound concentration 1000.0 nM
T3 sequence (whole entry): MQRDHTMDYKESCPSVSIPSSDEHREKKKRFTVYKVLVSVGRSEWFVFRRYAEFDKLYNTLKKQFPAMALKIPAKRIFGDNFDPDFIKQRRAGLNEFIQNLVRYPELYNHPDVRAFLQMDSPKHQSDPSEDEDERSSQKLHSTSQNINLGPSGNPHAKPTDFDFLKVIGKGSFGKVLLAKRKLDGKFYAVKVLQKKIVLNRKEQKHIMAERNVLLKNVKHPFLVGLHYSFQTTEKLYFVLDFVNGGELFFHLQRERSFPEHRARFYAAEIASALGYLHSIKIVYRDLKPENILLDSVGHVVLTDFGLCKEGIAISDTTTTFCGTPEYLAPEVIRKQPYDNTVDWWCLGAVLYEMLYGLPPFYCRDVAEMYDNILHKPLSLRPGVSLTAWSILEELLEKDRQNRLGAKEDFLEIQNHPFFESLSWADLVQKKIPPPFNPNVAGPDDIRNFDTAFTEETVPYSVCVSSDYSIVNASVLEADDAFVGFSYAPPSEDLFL

Sequence of Homeodomain-interacting protein kinase 1 (Homo sapiens) (Q86Z02 whole entry, looked up): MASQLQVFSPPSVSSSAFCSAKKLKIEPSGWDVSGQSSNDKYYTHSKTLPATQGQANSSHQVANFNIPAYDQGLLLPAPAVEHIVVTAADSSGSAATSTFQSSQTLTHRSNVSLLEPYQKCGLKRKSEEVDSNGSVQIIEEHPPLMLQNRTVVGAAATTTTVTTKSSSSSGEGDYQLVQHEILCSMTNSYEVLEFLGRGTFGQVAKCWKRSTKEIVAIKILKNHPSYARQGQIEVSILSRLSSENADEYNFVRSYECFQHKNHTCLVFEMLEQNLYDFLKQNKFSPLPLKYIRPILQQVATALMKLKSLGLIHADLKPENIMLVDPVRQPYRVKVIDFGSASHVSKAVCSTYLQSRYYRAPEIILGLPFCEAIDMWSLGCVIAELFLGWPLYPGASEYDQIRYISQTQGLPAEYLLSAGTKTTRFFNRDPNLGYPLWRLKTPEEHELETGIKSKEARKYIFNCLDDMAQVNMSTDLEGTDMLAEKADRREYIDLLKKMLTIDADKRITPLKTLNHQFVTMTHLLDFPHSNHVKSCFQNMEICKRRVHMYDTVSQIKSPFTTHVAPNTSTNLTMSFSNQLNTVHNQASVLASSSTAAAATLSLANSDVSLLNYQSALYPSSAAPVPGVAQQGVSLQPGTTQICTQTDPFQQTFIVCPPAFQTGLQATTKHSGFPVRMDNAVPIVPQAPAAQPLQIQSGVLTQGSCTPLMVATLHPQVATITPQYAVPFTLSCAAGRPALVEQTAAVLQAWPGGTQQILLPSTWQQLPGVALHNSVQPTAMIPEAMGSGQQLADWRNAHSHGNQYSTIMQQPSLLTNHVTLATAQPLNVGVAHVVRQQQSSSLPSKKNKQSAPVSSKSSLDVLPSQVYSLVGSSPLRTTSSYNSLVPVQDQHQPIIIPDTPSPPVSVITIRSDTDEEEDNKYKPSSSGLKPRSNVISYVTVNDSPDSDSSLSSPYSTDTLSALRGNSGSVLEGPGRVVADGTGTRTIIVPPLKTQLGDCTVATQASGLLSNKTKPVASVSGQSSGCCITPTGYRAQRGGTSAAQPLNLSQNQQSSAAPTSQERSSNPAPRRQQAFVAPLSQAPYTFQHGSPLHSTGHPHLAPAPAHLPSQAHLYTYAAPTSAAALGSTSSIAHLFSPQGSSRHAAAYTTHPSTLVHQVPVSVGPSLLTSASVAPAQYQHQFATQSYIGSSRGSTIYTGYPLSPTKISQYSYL

Structure (SMILES) | residual activity [1] [%] | residual activity [2] [%] | residual activity [3] [%] | residual activity [4] [%] | inhibition [5] [%] | residual activity [6] [%] | residual activity [7] [%] | residual activity [8] [%] | residual activity [9] [%] | residual activity [10] [%] | residual activity [11] [%] | residual activity [12] [%] | residual activity [13] [%] | residual activity [14] [%] | residual activity [15] [%] | residual activity [16] [%] | residual activity [17] [%] | residual activity [18] [%]
Cc1nc(C2CCN(C(=O)c3ccc(OC(F)(F)F)cc3N)CC2)c2ncc(N3CCN(C)CC3)cc2n1 [BAY-693] | 100 | 100 | 100 | 100 | -3.81 | 100 | 100 | 100 | 96 | 100 | 22 | 100 | 99 | 100 | 79 | 100 | 100 | 93
CN1CCN(c2cnc3c(C4CCN(C(=O)c5ccc(OC(F)(F)F)cc5N)CC4)ncnc3c2)CC1 [BAY-885] | 99 | 100 | 100 | 100 | 2.02 | 100 | 100 | 100 | 100 | 100 | 0.1 | 100 | 100 | 100 | 85 | 91 | 100 | 100
